Experimental data published in patent US8999921B2, “Process for diagnosing rheumatic diseases” (Cypress Bioscience, Inc., priority 2005, dated 2015).

Legend:
[1] = biological target: T1, antibody binding to mutated vimentin (Homo sapiens, UniProt P08670, A54Y/A67Y/G16R/G41R/G59R/G76R/P18T/P24T/P46T/P75T/R78S); experiment: Blocking of antibody binding to mutated vimentin in vitro (ELISA, RA sera)
T1 construct: His-tag; made in house; host or cells: E. coli
Method: To prepare an extract from green tea, 5 g of any commercially available tea were covered with 10 ml of 80% DMSO and stirred overnight. The solution was centrifuged at 13 000 rpm for 10. min and defined as tea extract. In contrast to the above solid substances 1, 2 and 4-6, 10 μl/ml tea extract of this preparation were employed. Antibody binding in the presence and absence of substances was analyzed in an ELISA for which microtiter plates were prepared analogously to Example 2. Different sera of RA patients were used in dilutions of from 1:100 to 1:400. Blocking of antibody binding was induced by preincubating 100 μl of the diluted serum with the substances or tea solutions indicated for 10 min. Subsequently, the remaining crossreaction was analyzed by transferring the 100 μl of serum-substance mixture to the cavities of said microtiter plate. According to the procedure of a classical ELISA, the bound antibodies were detected by means of a HRP-conjugated anti-human IgG. FIG. 3 depicts by way of example the results obtained using patient serum No. 400725.

[2] = Oral administration of freeze-dried tea extract to rats, plasma analysis by HPLC and GC/MS; type: in vivo
Description: Therefore the tea extracts prepared by us (see Example 7) were freeze-dried and reconstituted with cocoa oil or salmon oil. After oral administration of an extract prepared from 5 g of green tea (5 g/kg of body weight) to rats, blood was taken every half hour and analyzed by means of HPLC and GC/MS.

[3] = biological target: vimentin (Homo sapiens, UniProt P08670); conditions: Ermakova et al. 2005; cited from earlier work
[4] = test system: antibodies to the polypeptides of the invention; experiment: Follow-up of antibody titer (ELISA based on the polypeptide) and DAS score in treated RA patients; type: in vivo, human; conditions: for antibody titers, fraction of the starting value: patients with low disease activity (average DAS 2.8), in the course of 1-2 years, on average; for alteration in the DAS score due to treatment: severe rheumatoid arthritis (average DAS score of 4.9)
Description: Patients having low disease activity (average DAS score of 2.8) were identified by an ELISA based on the polypeptide of the invention (<300 U/ml on average). Correlating with the success of treatment (DAS score less than 1.5 after treatment) with sulfasalazine or cortisone, the antibody titers were reduced to, on average, ⅙ of the starting value in the course of 1-2 years.
Patients suffering from severe rheumatoid arthritis (average DAS score of 4.9) had, on average, an antibody titer of >1000 U/ml. […] In parallel with the altered antibody titer, patients reported during anamnesis a substantially more positive overall evaluation of their subjective situation regarding the disease, i.e. the diagnostic agent of the invention is also suitable for quality control of the therapy of a severe rheumatoid arthritis.

[5] = extract from 5 g green tea (5 g/kg of body weight)

T1 sequence (P08670 whole entry G16R/P18T/P24T/G41R/P46T/A54Y/G59R/A67Y/P75T/G76R/R78S): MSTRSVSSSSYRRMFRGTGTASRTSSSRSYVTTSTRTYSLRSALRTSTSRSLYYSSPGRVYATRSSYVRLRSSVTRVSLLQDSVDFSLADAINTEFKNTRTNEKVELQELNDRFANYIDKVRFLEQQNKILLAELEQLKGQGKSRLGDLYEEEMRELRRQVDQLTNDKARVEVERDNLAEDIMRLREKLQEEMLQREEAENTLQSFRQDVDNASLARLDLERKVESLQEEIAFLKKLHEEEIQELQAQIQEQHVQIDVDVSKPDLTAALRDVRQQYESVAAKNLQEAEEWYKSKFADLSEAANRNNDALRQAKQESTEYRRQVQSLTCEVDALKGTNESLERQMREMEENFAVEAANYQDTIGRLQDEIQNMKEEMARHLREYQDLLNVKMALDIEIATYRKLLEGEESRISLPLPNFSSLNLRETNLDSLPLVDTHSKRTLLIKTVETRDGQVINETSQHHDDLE
Sequence of vimentin (P08670 whole entry, species assumed): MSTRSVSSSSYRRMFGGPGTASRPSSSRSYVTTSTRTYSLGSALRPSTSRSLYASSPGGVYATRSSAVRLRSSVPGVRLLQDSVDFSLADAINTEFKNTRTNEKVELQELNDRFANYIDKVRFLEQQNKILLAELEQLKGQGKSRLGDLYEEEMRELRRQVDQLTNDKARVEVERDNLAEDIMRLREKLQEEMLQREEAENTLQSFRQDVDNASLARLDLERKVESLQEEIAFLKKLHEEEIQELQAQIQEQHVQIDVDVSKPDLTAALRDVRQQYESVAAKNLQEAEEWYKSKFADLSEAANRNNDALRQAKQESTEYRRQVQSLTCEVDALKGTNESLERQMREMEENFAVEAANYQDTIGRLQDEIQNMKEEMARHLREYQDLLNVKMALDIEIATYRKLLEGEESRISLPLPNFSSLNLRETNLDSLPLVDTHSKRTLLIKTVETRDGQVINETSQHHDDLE

Oc1cc(O)c2c(c1)O[C@H](c1ccc(O)c(O)c1)[C@H](O)C2 [EC, Epicatechin]
blocking of antibody binding ([1]; competition experiments, maximum): ≤ 10%

O=C(O[C@@H]1Cc2c(O)cc(O)cc2O[C@@H]1c1cc(O)c(O)c(O)c1)c1cc(O)c(O)c(O)c1 [EGCG, Epigallocatechin gallate]
blocking of formation of autoimmune complexes of autoantibodies to mutated vimentin [1]: blocked in a concentration-dependent manner | blocking of antibody binding ([1]; concentration of 10-100 μg/ml): no more than 45% | maximum plasma concentration for EGCG (content of 50% in the extract) [2, 5]: about 245 μg/ml | maximum plasma concentration of EC and EGCG (5-13% of the extract mass) [2, 5]: 75 µg/mL | time of maximum plasma concentration after intake ([2]; extract from 5 g green tea (5 g/kg of body weight) in cocoa oil or salmon oil): About 2 hours | binding to vimentin [3]: binds to vimentin

C[C@]12CCC(=O)C=C1CC[C@@H]1[C@@H]2C(=O)C[C@@]2(C)[C@H]1CC[C@]2(O)C(=O)CO [cortisone]
antibody titers, fraction of the starting value [4]: ⅙

CN(Cc1cnc2nc(N)nc(N)c2n1)c1ccc(C(=O)N[C@@H](CCC(=O)O)C(=O)O)cc1 [methotrexate]
alteration in the DAS score due to treatment [4]: no significant alteration

O=C(O)c1cc(/N=N/c2ccc(S(=O)(=O)Nc3ccccn3)cc2)ccc1O [sulfasalazine]
antibody titers, fraction of the starting value [4]: ⅙

Remicade: marketed drug used to treat severe rheumatoid arthritis
alteration in the DAS score due to treatment [4]: no significant alteration
